Measurements: PMC3593816 (Protein expression and purification, 2013)

Target: T1, Siglec5 (Homo sapiens, UniProt O15389, C36A)
T1 sequence (O15389 19-141 C36A): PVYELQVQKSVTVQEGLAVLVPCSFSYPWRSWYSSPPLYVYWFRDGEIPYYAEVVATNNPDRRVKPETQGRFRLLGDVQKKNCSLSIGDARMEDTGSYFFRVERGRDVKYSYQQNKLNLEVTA
Test: 2D 1H-15N HSQC NMR titration
Type: binding

SMILES | Kd
CC(=O)N[C@H]1[C@H]([C@H](O)[C@H](O)CO)OC(O)(C(=O)O)C[C@@H]1O (mixture of isomers) [sialic acid] | > 100 mM
CC(=O)N[C@H]1[C@H]([C@H](O)[C@H](O)CO)O[C@@](OC[C@H]2O[C@@H](O[C@H]3[C@H](O)[C@@H](O)C(O)O[C@@H]3CO)[C@H](O)[C@@H](O)[C@H]2O)(C(=O)O)C[C@@H]1O (some centres unmarked) [6′-sialyllactose] | 31 ± 8 mM
